Columns and labels:
Type in all cases: in vivo
[1] = tested on: barnyardgrass (Echinochloa crus-galli); assay: Test B flooded paddy test, barnyardgrass; conditions: 250 g ai/ha, Flood; visual rating after 13 to 15 days; scale 0 to 100, 0 is no effect, 100 is complete control
Method in brief: (§1)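 Visual ratings, 0 = no effect to 100 = complete control, versus controls after 13 to 15 days in greenhouse. Test compounds were added to paddy water kept 3 cm over the soil surface, on plants at 2-leaf stage.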

[2] = tested on: pigweed (Amaranthus retroflexus); assay: Test A postemergence, pigweed
Method in brief: (§2)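 Visual injury rating versus untreated controls on a 0 to 100 scale (0 = no effect, 100 = complete control), taken about 10 days after treatment in the greenhouse. Preemergence: directed soil spray over seeded loam–sand. Postemergence: spray on one- to two-leaf plants, 2 to 10 cm tall.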

[3] = tested on: wheat (Triticum aestivum); assay: Test A postemergence, wheat
Method in brief: as §2

[4] = tested on: ryegrass, Italian (Italian ryegrass, Lolium multiflorum); assay: Test A preemergence, Italian ryegrass; conditions: Preemergence, 0 to 100 scale (0 no effect, 100 complete control)
Method in brief: as §2

[5] = tested on: blackgrass (Alopecurus myosuroides); assay: Test A postemergence, blackgrass
Method in brief: as §2

[6] = tested on: barnyardgrass (Echinochloa crus-galli); assay: Test A postemergence, barnyardgrass
Method in brief: as §2

[7] = tested on: ragweed (common ragweed, Ambrosia elatior); assay: Test A postemergence, ragweed
Method in brief: as §2

[8] = tested on: sedge, umbrella (small-flower umbrella sedge, Cyperus difformis); assay: Test B flooded paddy test, umbrella sedge; conditions: 250 g ai/ha, Flood; visual rating after 13 to 15 days; scale 0 to 100, 0 is no effect, 100 is complete control
Method in brief: as §1

[9] = tested on: ragweed (common ragweed, Ambrosia elatior); assay: Test A preemergence, ragweed; conditions: Preemergence, 0 to 100 scale (0 no effect, 100 complete control)
Method in brief: as §2

[10] = tested on: foxtail, giant (giant foxtail, Setaria faberii); assay: Test A preemergence, giant foxtail; conditions: Preemergence, 0 to 100 scale (0 no effect, 100 complete control)
Method in brief: as §2

[11] = tested on: ryegrass, Italian (Italian ryegrass, Lolium multiflorum); assay: Test A postemergence, Italian ryegrass
Method in brief: as §2

kochia (Kochia scoparia) [12] = assay: Test A postemergence, kochia
Method in brief: as §2

corn (Zea mays) = assay: Test A postemergence, corn
Method in brief: as §2

[13] = tested on: pigweed (Amaranthus retroflexus); assay: Test A preemergence, pigweed; conditions: Preemergence, 0 to 100 scale (0 no effect, 100 complete control)
Method in brief: as §2

[14] = tested on: barnyardgrass (Echinochloa crus-galli); assay: Test A preemergence, barnyardgrass; conditions: Preemergence, 0 to 100 scale (0 no effect, 100 complete control)
Method in brief: as §2

[15] = tested on: galium (catchweed bedstraw, Galium aparine); assay: Test A postemergence, galium
Method in brief: as §2

[16] = tested on: ducksalad (Heteranthera limosa); assay: Test B flooded paddy test, ducksalad; conditions: 250 g ai/ha, Flood; visual rating after 13 to 15 days; scale 0 to 100, 0 is no effect, 100 is complete control
Method in brief: as §1

rice (Oryza sativa) = assay: Test B flooded paddy test, rice; conditions: 250 g ai/ha, Flood; visual rating after 13 to 15 days; scale 0 to 100, 0 is no effect, 100 is complete control
Method in brief: as §1

kochia (Kochia scoparia) [17] = assay: Test A preemergence, kochia; conditions: Preemergence, 0 to 100 scale (0 no effect, 100 complete control)
Method in brief: as §2

[18] = tested on: foxtail, giant (giant foxtail, Setaria faberii); assay: Test A postemergence, giant foxtail
Method in brief: as §2

[19] = 31 g ai/ha, postemergence, 0 to 100 scale, 0 is no effect, 100 is complete control, approximately 10 days
[20] = 125 g ai/ha, postemergence, 0 to 100 scale, 0 is no effect, 100 is complete control, approximately 10 days
[21] = 500 g ai/ha, postemergence, 0 to 100 scale, 0 is no effect, 100 is complete control, approximately 10 days
[22] = Postemergence, 31 g ai/ha, 0 to 100 scale (0 no effect, 100 complete control)

Row | Structure (SMILES) | Plant response rating, Barnyardgrass [1] | Plant response rating, Pigweed [2, 20] | Plant response rating, Wheat [3, 20] | Plant response rating, Ryegrass, Italian ([4]; 125 g ai/ha) | Plant response rating, Blackgrass [5, 20] | Plant response rating, Barnyardgrass [6, 20] | Plant response rating, Ragweed [7, 20] | Plant response rating, Sedge, Umbrella [8] | Plant response rating, Ragweed ([9]; 125 g ai/ha) | Plant response rating, Foxtail, Giant ([10]; 125 g ai/ha) | Plant response rating, Ryegrass, Italian [11, 20] | Plant response rating, Kochia (kochia (Kochia scoparia) [12]; [20]) | Plant response rating, Corn (corn (Zea mays); [20]) | Plant response rating, Pigweed ([13]; 125 g ai/ha) | Plant response rating, Barnyardgrass ([14]; 125 g ai/ha) | Plant response rating, Galium [15, 20] | Plant response rating, Ducksalad [16] | Plant response rating, Rice (rice (Oryza sativa)) | Plant response rating, Kochia (kochia (Kochia scoparia) [17]; 125 g ai/ha) | Plant response rating, Foxtail, Giant [18, 20] | further results
1 | FC(F)(F)CCCOc1c(Oc2ncc(Cl)cn2)cccc1C(F)(F)F [Compound 54] | 40 | 80 | 10 | 80 | 10 | 20 | 10 | 100 | 0 | 100 | 20 | 50 | 20 | 100 | 90 | 50 | 100 | 40 | 30 | 70 | Plant response rating, Pigweed [2, 19]: 20; Plant response rating, Wheat [3, 19]: 0; Plant response rating, Ryegrass, Italian ([4]; 31 g ai/ha): 10; Plant response rating, Blackgrass [5, 19]: 0; Plant response rating, Barnyardgrass [6, 19]: 10; Plant response rating, Ragweed [7, 19]: 0; Plant response rating, Ragweed ([9]; 31 g ai/ha): 0; Plant response rating, Foxtail, Giant ([10]; 31 g ai/ha): 50; Plant response rating, Ryegrass, Italian [11, 19]: 0; Plant response rating, Kochia (kochia (Kochia scoparia) [12]; [19]): 10; Plant response rating, Corn (corn (Zea mays); [19]): 10; Plant response rating, Pigweed ([13]; 31 g ai/ha): 20; Plant response rating, Barnyardgrass ([14]; 31 g ai/ha): 20; Plant response rating, Galium [15, 19]: 20; Plant response rating, Kochia (kochia (Kochia scoparia) [17]; 31 g ai/ha): 0; Plant response rating, Foxtail, Giant [18, 19]: 10
2 | FCCCOc1c(I)cccc1Oc1ncc(Cl)cn1 [Compound 66] | 0 | 100 | 0 | 10 | 30 | 50 | 0 | 100 | 0 | 100 | 20 | 100 | 30 | 100 | 70 | 90 | 100 | 20 | 60 | 30 | Plant response rating, Pigweed [2, 19]: 90; Plant response rating, Wheat [3, 19]: 0; Plant response rating, Ryegrass, Italian ([4]; 31 g ai/ha): 0; Plant response rating, Blackgrass [5, 19]: 10; Plant response rating, Barnyardgrass [6, 19]: 0; Plant response rating, Ragweed [7, 19]: 0; Plant response rating, Ragweed ([9]; 31 g ai/ha): 0; Plant response rating, Foxtail, Giant ([10]; 31 g ai/ha): 50; Plant response rating, Ryegrass, Italian [11, 19]: 0; Plant response rating, Kochia (kochia (Kochia scoparia) [12]; [19]): 90; Plant response rating, Corn (corn (Zea mays); [19]): 0; Plant response rating, Pigweed ([13]; 31 g ai/ha): 70; Plant response rating, Barnyardgrass ([14]; 31 g ai/ha): 20; Plant response rating, Galium [15, 19]: 40; Plant response rating, Kochia (kochia (Kochia scoparia) [17]; 31 g ai/ha): 0; Plant response rating, Foxtail, Giant [18, 19]: 10
3 | CC(COc1c(C#N)cccc1Oc1ncc(Cl)cn1)CC(F)(F)F (stereo not drawn) [Compound 34] | 0 | 100 | 10 | 10 | 20 | 20 | 10 | 75 | 0 | 100 | 0 | 90 | 20 | 100 | 70 | 70 | 40 | 20 | 80 | 40 | Plant response rating, Pigweed [2, 21]: 100; Plant response rating, Wheat [3, 21]: 20; Plant response rating, Ryegrass, Italian ([4]; 500 g ai/ha): 40; Plant response rating, Blackgrass [5, 21]: 60; Plant response rating, Barnyardgrass [6, 21]: 50; Plant response rating, Ragweed [7, 21]: 10; Plant response rating, Ragweed ([9]; 500 g ai/ha): 10; Plant response rating, Foxtail, Giant ([10]; 500 g ai/ha): 100; Plant response rating, Ryegrass, Italian [11, 21]: 20; Plant response rating, Kochia (kochia (Kochia scoparia) [12]; [21]): 100; Plant response rating, Corn (corn (Zea mays); [21]): 40; Plant response rating, Pigweed ([13]; 500 g ai/ha): 100; Plant response rating, Barnyardgrass ([14]; 500 g ai/ha): 100; Plant response rating, Galium [15, 21]: 90; Plant response rating, Kochia (kochia (Kochia scoparia) [17]; 500 g ai/ha): 100; Plant response rating, Foxtail, Giant [18, 21]: 90
4 | CCC(=O)COc1c(C#N)cccc1Oc1ncc(Cl)cn1 [Compound 75] | 0 | 20 | 0 | 0 | 0 | 0 | 0 | 0 | 0 | 40 | 0 | 20 | 10 | 100 | 50 | 20 | 30 | 0 | 60 | 0 | Plant response rating, Pigweed [2, 22]: 10; Plant response rating, Wheat [3, 22]: 0; Plant response rating, Ryegrass, Italian ([4]; 31 g ai/ha): 0; Plant response rating, Blackgrass [5, 22]: 0; Plant response rating, Barnyardgrass [6, 22]: 0; Plant response rating, Ragweed [7, 22]: 0; Plant response rating, Ragweed ([9]; 31 g ai/ha): 0; Plant response rating, Foxtail, Giant ([10]; 31 g ai/ha): 0; Plant response rating, Ryegrass, Italian [11, 22]: 0; Plant response rating, Kochia (kochia (Kochia scoparia) [12]; [22]): 10; Plant response rating, Corn (corn (Zea mays); [22]): 0; Plant response rating, Pigweed ([13]; 31 g ai/ha): 50; Plant response rating, Barnyardgrass ([14]; 31 g ai/ha): 0; Plant response rating, Galium [15, 22]: 10; Plant response rating, Kochia (kochia (Kochia scoparia) [17]; 31 g ai/ha): 0; Plant response rating, Foxtail, Giant [18, 22]: 0
5 | FC(F)(F)CCOc1c(I)cccc1Oc1ncc(Cl)cn1 [Compound 69] | 40 | 100 | 30 | 50 | 80 | 100 | 40 | 100 | 0 | 100 | 90 | 100 | 70 | 100 | 100 | 100 | 100 | 15 | 100 | 100 | Plant response rating, Pigweed [2, 22]: 100; Plant response rating, Wheat [3, 22]: 0; Plant response rating, Ryegrass, Italian ([4]; 31 g ai/ha): 10; Plant response rating, Blackgrass [5, 22]: 30; Plant response rating, Barnyardgrass [6, 22]: 60; Plant response rating, Ragweed [7, 22]: 30; Plant response rating, Ragweed ([9]; 31 g ai/ha): 0; Plant response rating, Foxtail, Giant ([10]; 31 g ai/ha): 90; Plant response rating, Ryegrass, Italian [11, 22]: 0; Plant response rating, Kochia (kochia (Kochia scoparia) [12]; [22]): 90; Plant response rating, Corn (corn (Zea mays); [22]): 20; Plant response rating, Pigweed ([13]; 31 g ai/ha): 90; Plant response rating, Barnyardgrass ([14]; 31 g ai/ha): 90; Plant response rating, Galium [15, 22]: 60; Plant response rating, Kochia (kochia (Kochia scoparia) [17]; 31 g ai/ha): 80; Plant response rating, Foxtail, Giant [18, 22]: 40

From patent publication US10485235B2, “Aryloxypyrimidinyl ethers as herbicides” (FMC Corporation, priority 2015, dated 2019)
